Data set [1] concerns Colletotrichum coccodes. Description: Antifungal activity against Colletotrichum coccodes infected tomato fruit assessed as spore production at 44.8 ul/l incubated for 9 days post-inoculation (reference value: 1.6 +/- 0.92 10^5/ml). Type of data set: functional.
The test system of data set [2] is Colletotrichum coccodes. Description: Induction of Colletotrichum coccodes growth infected tomato fruit assessed as fruit cracking at 100% v/v incubated for 7 days post-inoculation relative to control. Particulars: in vivo, 168 h. Type of data set: organism-based.
The subject of data set [3] is Colletotrichum coccodes. The data set can be described thus: Antifungal activity against Colletotrichum coccodes assessed as spore production at 44.8 ul/l inoculated on medium pretreated with compound for 7 days followed by compound wash-out measured after 9 days (7.7 +/- 4.15 10^5/ml). Type of data set: functional.
Data set [4] deals with Colletotrichum coccodes. Description: Antifungal activity against Colletotrichum coccodes assessed as colony area at 44.8 ul/l inoculated on medium pretreated with compound for 7 days followed by compound wash-out measured after 7 days (5.98 +/- 0.36 cm2). Type of data set: functional.
Data set [5] concerns Colletotrichum coccodes. Description: Antifungal activity against Colletotrichum coccodes infected tomato fruit assessed as spore germination at 44.8 ul/l inoculated on fruit pre-treated with compound for 7 days followed by 7 days incubation measured 24 hr post spore-inoculation on medium (reference value: 88.8 +/- 5.19%). Type of data set: functional.
In data set [6] the test system is Colletotrichum coccodes. Description: Antifungal activity against Colletotrichum coccodes assessed as spore germination at 44.8 ul/l incubated for 24 hr post-inoculation (reference value: 100%). Type of data set: functional.
The test system of data set [7] is Colletotrichum coccodes. The data set can be described thus: Antifungal activity against Colletotrichum coccodes infected tomato fruit assessed as spore production at 44.8 ul/l inoculated on fruit pre-treated with compound for 7 days measured after 9 days (reference value: 11.2 +/- 4.29 10^5/ml). Type of data set: functional.
The test system of data set [8] is Colletotrichum coccodes. Description: Antifungal activity against Colletotrichum coccodes assessed as spore germination at 44.8 ul/l inoculated on medium pretreated with compound for 24 hr followed by compound wash-out measured after 24 hr (100%). Type of data set: functional.
Data set [9] relates to Colletotrichum coccodes. Description: Antifungal activity against Colletotrichum coccodes infected tomato fruit assessed as decrease in fruit cracking at 100% v/v incubated for 7 days post-inoculation relative to control. Type of data set: functional, organism-based.
The test system of data set [10] is Colletotrichum coccodes. Description: Antifungal activity against Colletotrichum coccodes infected tomato fruit assessed as suppression in lesion at 41.8 ul/l inoculated on fruit pretreated with compound for 20 min measured after 9 days relative to control. Type of data set: functional.
Data set [11] concerns Colletotrichum coccodes. Description: Antifungal activity against Colletotrichum coccodes assessed as spore production at 44.8 ul/l incubated for 9 days post-inoculation (reference value: 7.1 +/- 2.44 10^5/ml). Type of data set: functional.
In data set [12] the test system is Colletotrichum coccodes. The data set can be described thus: Antifungal activity against Colletotrichum coccodes assessed as colony area at 44.8 ul/l incubated for 7 days post-inoculation (reference value: 9.55 +/- 0.25 cm2). Type of data set: functional.
The test system of data set [13] is Colletotrichum coccodes. The data set can be described thus: Antifungal activity against Colletotrichum coccodes infected tomato fruit assessed as spore germination at 44.8 ul/l incubated for 7 days post-inoculation followed by spore inoculation on medium measured after 24 hr (reference value: 96.5 +/- 2.66%). Type of data set: functional.
Data set [14] has as its system Colletotrichum coccodes. The data set can be described thus: Antifungal activity against Colletotrichum coccodes infected tomato fruit assessed as lesion area at 44.8 ul/l incubated for 7 days post-inoculation (reference value: 1.64 +/- 0.62 cm2). Type of data set: functional.
Data set [15] concerns Colletotrichum coccodes. Description: Antifungal activity against Colletotrichum coccodes infected tomato fruit assessed as suppression in lesion at 41.8 ul/l incubated for 20 min followed by compound wash out measured after 6 days relative to control. Type of data set: functional, organism-based.
The test system of data set [16] is Colletotrichum coccodes. The data set can be described thus: Antifungal activity against Colletotrichum coccodes infected tomato fruit assessed as lesion area at 44.8 ul/l inoculated on fruit pretreated with compound for 7 days measured after 7 days (reference value: 4.33 +/- 0.6 cm2). Type of data set: functional.

Structures are written as SMILES. Active and inactive are the calls of the source. The rule behind the calls is not given here.

For the molecule `CC/C=C\CC1C(=O)CCC1CC(=O)OC` (configuration not stated) [METHYL JASMONATE], the Activity in data set [1] is given as 1 ×10⁵ /ml; in [2], 23%; in data set [3], 7.6 ×10⁵ /ml; in data set [4], 4.55 cm2; in data set [5], 55.2%; in data set [6], 99.5%. The Activity in data set [7] is 7.7 ×10⁵ /ml; in [8], 99%; in data set [10], 20%; in data set [11] it was 6.9 ×10⁵ /ml; in data set [12], 8.18 cm2; in data set [13] it was 51.6%. For the same molecule, the Activity in [14] was determined as 2.79 cm2; in [16] it was 4.74 cm2. The result in data set [9] was Active. Further, the result in [15] was inactive.

Consider `Cl`, for which the outcome in [9] was Active.

The record behind these values is ChEMBL document CHEMBL3045775, “Methyl jasmonate-induced suppression of anthracnose rot in tomato fruit” (Crop Prot, 2007).
